Test results: US10144746B2 (GLOBAL BLOOD THERAPEUTICS, INC., priority 2015, dated 2018)
Structures can show the parent of a compound that is named as a salt.

Target: Human plasma kallikrein (Homo sapiens (Human), UniProt P03952)
Assay: In vitro plasma kallikrein inhibition assay (chromogenic substrate D-Pro-Phe-Arg-pNa, absorbance at 405 nm, IC50 determination)
Assay type: biochemical
Conditions: for IC50: read-out: KLKB1 pIC50 (converted)

Human plasma kallikrein, sequence (P03952 391-638): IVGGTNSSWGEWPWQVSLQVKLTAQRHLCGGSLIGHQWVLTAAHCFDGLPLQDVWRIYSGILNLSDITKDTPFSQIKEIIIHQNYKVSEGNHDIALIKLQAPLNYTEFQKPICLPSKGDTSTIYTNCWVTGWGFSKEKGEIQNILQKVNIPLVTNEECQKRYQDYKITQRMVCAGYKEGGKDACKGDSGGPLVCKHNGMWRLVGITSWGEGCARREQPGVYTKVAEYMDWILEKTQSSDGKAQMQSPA
Human plasma kallikrein, sequence (P03952 20-390 partner): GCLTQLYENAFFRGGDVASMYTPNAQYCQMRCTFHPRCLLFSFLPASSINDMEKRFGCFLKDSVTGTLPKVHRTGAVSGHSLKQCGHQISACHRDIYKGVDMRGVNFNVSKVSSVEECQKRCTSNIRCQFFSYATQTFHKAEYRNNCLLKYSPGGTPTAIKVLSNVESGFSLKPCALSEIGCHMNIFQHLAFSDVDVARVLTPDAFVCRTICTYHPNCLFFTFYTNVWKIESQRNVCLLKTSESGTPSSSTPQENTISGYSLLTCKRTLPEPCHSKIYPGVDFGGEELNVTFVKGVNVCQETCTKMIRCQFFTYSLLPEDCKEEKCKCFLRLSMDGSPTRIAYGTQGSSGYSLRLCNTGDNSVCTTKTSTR

| IC50 [nM] | KLKB1 pIC50 | SMILES |
| --- | --- | --- |
| 372 | – | Cc1cc(CN)cc(C)c1CNC(=O)c1ccc2c(c1)C1OC2c2ccc(-c3ccc(F)cc3F)cc21 (racemic) [Example 147, (±)-N-{[4-(aminomethyl)-2,6-dimethylphenyl]-methyl}-12-(2,4-difluorophenyl)-15-oxatetracyclo[6.6.1.0^2,^7.0^9,1^4] pentadeca-2,4,6,9,11,13-hexaene-4-carboxamide] |
| 42700 | – | O=C(N[C@H]1CCNC1)c1ccc2c(c1)[C@@H]1O[C@H]2c2ccc(-c3ccc(F)cc3F)cc21 (single isomer, unassigned) [Example 325] |
| 93.3 | – | Cc1cc(N)nc(C)c1CNC(=O)c1ccc2c(c1)[C@@H]1O[C@H]2c2ccc(N(c3cccc(F)c3)C(C)C)cc21 (single isomer, unassigned) [Example 249] |
| 100000 | – | O=C(NCc1ccc(-c2noc(=O)[nH]2)cc1)c1ccc2c(c1)[C@@H]1O[C@H]2c2ccc(-c3ccc(F)cc3F)cc21 (single isomer, unassigned) [Example 270] |
| 17.4 | – | Cc1cc(N)nc(C)c1CNC(=O)c1ccc2c(c1)[C@@H]1O[C@H]2c2ccc(-c3ccc(Cl)c(F)c3F)cc21 (single isomer, unassigned) [Example 145] |
| 3550 | – | Cc1cc(N)nc(C)c1CNC(=O)c1ccc2c(c1)C1OC2c2ccc(C[N+]3([O-])CCOCC3)cc21 (racemic) [Example 50] |
| 26.9 | – | Cc1cc(N)nc(C)c1CNC(=O)c1ccc2c(c1)[C@@H]1O[C@H]2c2ccc(N(C)c3cccc(F)c3)cc21 (single isomer, unassigned) [Example 218] |
| 1.74 | – | N=C(N)c1ccc(CNC(=O)c2ccc3c(c2)[C@@H]2O[C@H]3c3ccc(-c4ccccc4F)cc32)cc1 (single isomer, unassigned) [Example 187] |
| 0.741 | – | Cc1cc(C(=N)N)cc(C)c1CNC(=O)c1ccc2c(c1)[C@@H]1O[C@H]2c2ccc(-c3ccc(F)cc3F)cc21 (single isomer, unassigned) [Example 199] |
| 20000 | – | Nc1cc(CNC(=O)c2ccc3c(c2)C2OC3c3ccc(-c4ccc(F)cc4F)cc32)ccn1 (racemic) [Example 168, (±)-N-[(2-aminopyridin-4-yl)methyl]-12-(2,4-difluorophenyl)-15-oxatetracyclo[6.6.1.0^2,^7.0^9,1^4]-pentadeca-2,4,6,9,11,13-hexaene-4-carboxamide] |
| 5.89 | – | COc1cc(CNC(=O)c2ccc3c(c2)[C@@H]2O[C@H]3c3ccc(-c4ccc(F)cc4F)cc32)ccc1C(=N)N (single isomer, unassigned) [Example 338] |
| 427 | – | Cc1cc(N)nc(C)c1CNC(=O)c1ccc2c(c1)C1OC2c2ccc(-c3ccc(C(F)(F)F)c(F)c3F)cc21 (racemic) [Example 119, (±)-N-[(6-amino-2,4-dimethylpyridin-3-yl)-methyl]-12-[2,3-difluoro-4-(trifluoromethyl)-phenyl]-15-oxatetracyclo[6.6.1.0^2,^7.0^9,1^4] pentadeca-2,4,6,9,11,13-hexaene-4-carboxamide] |
| 4900 | – | Nc1n[nH]c2cc(CNC(=O)c3ccc4c(c3)[C@@H]3O[C@H]4c4ccc(-c5ccc(F)cc5F)cc43)ccc12 (single isomer, unassigned) [Example 207] |
| 6310 | – | C#Cc1ccccc1-c1ccc2c(c1)C1OC2c2ccc(C(=O)NCc3c(C)cc(N)nc3C)cc21 (racemic) [Example 126, (±)-N-[(6-amino-2,4-dimethylpyridin-3-yl)-methyl]-12-(2-ethynylphenyl)-15-oxatetra-cyclo[6.6.1.0^2,^7.0^9,1^4]pentadeca-2,4,6,9,11,13-hexaene-4-carboxamide] |
| 1 | – | C=C(C)c1ccc2c(c1)[C@H]1O[C@@H]2c2ccc(C(=O)NCc3c(F)cc(C(=N)N)cc3F)cc21 (single isomer, unassigned) [Example 285] |
| 195 | – | Cc1cc(N)nc(C)c1CNC(=O)c1ccc2c(c1)[C@@H]1O[C@H]2c2cc(-c3ccccc3F)ccc21 (single isomer, unassigned) [Example 130] |
| 6310 | – | Cc1cc(N)nc(C)c1CNC(=O)c1ccc2c(c1)C1OC2c2ccc(Oc3cccnc3)cc21 (racemic) [Example 144, (±)-N-[(6-amino-2,4-dimethylpyridin-3-yl)methyl]-12-(pyridin-3-yloxy)-15-oxatetracyclo[6.6.1.0^2,^7.0^9,1^4] pentadeca-2,4,6,9,11,13-hexaene-4-carboxamide] |
| – | 5.6 | Cc1cc(N)nc(C)c1CNC(=O)c1ccc2c(c1)C1OC2(C)c2ccc(-c3ccc(F)cc3)cc21 (racemic) [Example 334, (±)-N-[(6-amino-2,4-dimethyl-pyridin-3-yl)methyl]-12-(4-fluorophenyl)-8-methyl-15-oxatetracyclo[6.6.1.0^2,^7.0^9,1^4] pentadeca-2,4,6,9,11,13-hexaene-4-carboxamide (±)-N-[(6-amino-2,4-dimethylpyridin-3-yl)methyl]-11-(4-fluorophenyl)-8-methyl-15-oxatetracyclo[6.6.1.0^2,^7.0^9,1^4] pentadeca-2,4,6,9,11,13-hexaene-4-carboxamide] |
| 20.9 | – | N=C(N)c1ccc(CNC(=O)c2ccc3c(c2)C2OC3c3ccc(-c4ccc(F)cc4F)cc32)cc1F (racemic) [Example 198, (±)-N-[(4-carbamimidoyl-3-fluorophenyl)methyl]-12-(2,4-difluorophenyl)-15-oxatetracyclo-[6.6.1.0^2,^7.0^9,1^4]pentadeca-2,4,6,9,11,13-hexaene-4-carboxamide] |

| IC50 [nM] | KLKB1 pIC50 | SMILES |
| --- | --- | --- |
| – | 5 | Cc1c(CNC(=O)c2ccc3c(c2)C2OC3c3ccc(-c4cccc(F)c4F)cc32)c(F)cc2c1CNC2 (centres unmarked) |
| 2 | – | N=C(N)c1ccc(CNC(=O)c2ccc3c(c2)[C@@H]2O[C@H]3c3ccc(C4CC4)cc32)cc1 (single isomer, unassigned) [Example 259] |
| 282 | – | Cc1cc(N)nc(C)c1CNC(=O)c1ccc2c(c1)C1OC2c2ccc(-c3ccc4[nH]cnc4c3)cc21 (racemic) [Example 123, (±)-N-[(6-amino-2,4-dimethylpyridin-3-yl)-methyl]-12-(1H-1,3-benzodiazol-5-yl)-15-oxatetracyclo[6.6.1.0^2,^7.0^9,1^4] pentadeca-2,4,6,9,11,13-hexaene-4-carboxamide] |
| 25.7 | – | Cc1cc(N)nc(C)c1CNC(=O)c1ccc2c(c1)C1OC2c2ccc(-c3ccc(F)c4c3OCO4)cc21 (racemic) [Example 108, trifluoroacetate salt] |
| 10000 | – | Nc1noc2ccc(NC(=O)c3ccc4c(c3)[C@@H]3O[C@H]4c4ccc(-c5ccc(F)cc5F)cc43)cc12 (single isomer, unassigned) [Example 245] |
| 10000 | – | N=C(NC(=O)c1ccc2c(c1)[C@@H]1O[C@H]2c2ccc(-c3ccc(F)cc3F)cc21)c1ccc(N)cc1 (single isomer, unassigned) [Example 221] |
| 316 | – | Cc1cc2c(c(C)c1CNC(=O)c1ccc3c(c1)C1OC3c3ccc(-c4ccc(F)cc4F)cc31)CNC2 (racemic) |
| 1050 | – | Cc1cc(N)nc(C)c1CNC(=O)c1ccc2c(c1)[C@@H]1O[C@H]2c2ccc(-c3cccc[n+]3[O-])cc21 (single isomer, unassigned) [Example 195] |
| 851 | – | Cc1cc(N)nc(C)c1CNC(=O)c1ccc2c(c1)C1OC2c2cc(C#N)c(C#N)cc21 (racemic) [Example 326, (±)-N-((6-amino-2,4-dimethylpyridin-3-yl)methyl]-11,12-dicyano-15-oxatetracyclo-[6.6.1.0^2,^7.0^9,1^4]pentadeca-2,4,6,9,11,13-hexaene-4-carboxamide] |
| 10 | – | CCCc1cc(N)nc(C)c1CNC(=O)c1ccc2c(c1)C1OC2c2ccc(-c3ccc(F)cc3F)cc21 (racemic) [Example 172, (±)-N-[(6-amino-2-methyl-4-propylpyridin-3-yl)methyl]-12 (2,4-difluorophenyl)-15-oxatetracyclo[6.6.1.0^2,^7.0^9,1^4] pentadeca-2,4,6,9,11,13-hexaene-4-carboxamide] |
| 148 | – | Cc1cc(N)nc(C)c1CNC(=O)c1ccc2c(c1)C1OC2c2ccc(Oc3ccc(F)c(F)c3)cc21 (racemic) [Example 122, (±)-N-[(6-amino-2,4-dimethylpyridin-3-yl)-methyl]-12-(3,4-difluorophenoxy)-15-oxatetracyclo[6.6.1.0^2,^7.0^9,1^4] pentadeca-2,4,6,9,11,13-hexaene-4-carboxamide] |
| 15.1 | – | COc1cc(N)nc(C)c1CNC(=O)c1ccc2c(c1)C1OC2c2ccc(-c3ccc(C)cc3C#N)cc21 (racemic) [Example 105] |
| 1230 | – | CCOC(=O)N=C(N)c1cc(F)c(CNC(=O)c2ccc3c(c2)[C@@H]2O[C@H]3c3ccc(-c4ccc(F)cc4F)cc32)c(F)c1 (single isomer, unassigned) [Example 269] |
| – | 6.99 | NC(=NO)c1cc(F)c(CNC(=O)c2ccc3c(c2)[C@@H]2O[C@H]3c3ccc(-c4ccc(F)cc4F)cc32)c(F)c1 [Example 266, (1R,8S)-N-({2,6-difluoro-4-[N′-hydroxy-carbamimidoyl]phenyl}methyl)-12-(2,4-difluorophenyl)-15-oxatetracyclo[6.6.1.0^2,^7.0^9,1^4]-pentadeca-2,4,6,9,11,13-hexaene-4-carboxamide] |
| 0.759 | – | N=C(N)c1cc(F)c(CNC(=O)c2ccc3c(c2)[C@@H]2O[C@H]3c3ccc(-c4ccc(F)cc4F)cc32)c(F)c1 (single isomer, unassigned) [Example 256] |
| 10000 | – | N=C(N)c1cccc(NC(=O)c2ccc3c(c2)[C@@H]2O[C@H]3c3ccc(-c4ccc(F)cc4F)cc32)c1 (single isomer, unassigned) [Example 258] |
| 100000 | – | O=C(NCC1CNC1)c1ccc2c(c1)[C@@H]1O[C@H]2c2ccc(-c3ccc(F)cc3F)cc21 (single isomer, unassigned) [Example 323] |
| 91.2 | – | Cc1nc(N)cc(C(C)C)c1CNC(=O)c1ccc2c(c1)[C@@H]1O[C@H]2c2ccc(-c3cc[n+]([O-])cc3F)cc21 (single isomer, unassigned) [Example 265] |
| 6310 | – | Cc1cc(N)nc(C)c1CNC(=O)c1ccc2c(c1)C1OC2c2ccccc21 (racemic) [Example 1] |
